Experimental data: the NIST ThermoML archive (doi:10.1016/j.jct.2005.05.015)
± gives the expanded uncertainty stated by the source.

Conditions: Liquid, Twin ebulliometer

CCCCC [pentane]
Conditions | vapor or sublimation pressure [kPa]
309.32 K | 101.73 ± 0.076
313.85 K | 118.39 ± 0.083
320.2 K | 145.3 ± 0.093
325.22 K | 169.71 ± 0.11
330.84 K | 200.67 ± 0.12
335.22 K | 227.66 ± 0.13
339.51 K | 256.78 ± 0.14
343.32 K | 284.81 ± 0.16
346.78 K | 312.35 ± 0.17
349.92 K | 338.98 ± 0.18
353.48 K | 371.25 ± 0.19
356.79 K | 403.22 ± 0.21
360.01 K | 436.34 ± 0.22
363.24 K | 471.57 ± 0.23
366.37 K | 507.7 ± 0.25
369.92 K | 551.11 ± 0.27
377.19 K | 648.59 ± 0.29
384.19 K | 754.18 ± 0.34
392.52 K | 895.85 ± 0.37
397.8 K | 995.29 ± 0.41
402.59 K | 1092.4 ± 0.44
406.87 K | 1185.1 ± 0.47
412.57 K | 1317.5 ± 0.5
416.13 K | 1405.5 ± 0.53
417.87 K | 1450 ± 0.55
420.09 K | 1508.6 ± 0.57
423.75 K | 1608.9 ± 0.59
424.62 K | 1633.2 ± 0.6
427.09 K | 1704.4 ± 0.62
430.44 K | 1804.8 ± 0.65
430.68 K | 1812 ± 0.65
433.61 K | 1903.7 ± 0.68
437.57 K | 2033.2 ± 0.71
440.81 K | 2143.7 ± 0.74
443.59 K | 2242.6 ± 0.77
446.65 K | 2355.2 ± 0.8
449.18 K | 2451.9 ± 0.83
451.9 K | 2559.3 ± 0.85
451.99 K | 2562.8 ± 0.85
454.33 K | 2658.6 ± 0.88
455.99 K | 2727.7 ± 0.89
